Bridges are numbered along the chain shown (N, C = ends). Roman numbers before positions name the chains, in order. Where no end group is shown, it is not given here. [ ]: non-standard residue; d: D form. The star is where a group is joined. ξ: configuration not given here. 1Nal = N[C@@H](Cc1cccc2ccccc12)C(=O)O; NH(CH2CH2O)2CH2CH2NH2 = NCCOCCOCCN*; hSer = N[C@@H](CCO)C(=O)O; ξK = NCCCCC(N)C(=O)O; Ahx = NCCCCCC(=O)O; Sar = CNCC(=O)O
Assays:
[1] = biological target: chimeric receptor comprising the extra-cellular portion of the human EPO receptor to the intra-cellular portion of the human GCSF receptor; assay: Reporter assay (Baf3/EpoR/GCSFR fos/lux luciferase); format: cell-based; settings: peptide monomers; Baf3/EpoR/GCSFR fos/lux cells, 4 h
Protocol: One assay is based upon a murine pre-B-cell line expressing human EPO-R and further transfected with a fos promoter-driven luciferase reporter gene construct. Upon exposure to EPO or another EPO-R agonist, such cells respond by synthesizing luciferase. Luciferase causes the emission of light upon addition of its substrate luciferin. Thus, the level of EPO-R activation in such cells may be quantitated via measurement of luciferase activity. The activity of a test peptide is measured by adding serial dilutions of the test peptide to the cells, which are then incubated for 4 hours. After incubation, luciferin substrate is added to the cells, and light emission is measured. The concentration of test peptide that results in a half-maximal emission of light is recorded as the EC50.
This assay is based upon a on a murine pre-B-cell line derived reporter cell, Baf3/EpoR/GCSFR fos/lux. […] Thus, the level of EPO-R activation in such cells may be quantitated via measurement of luciferase activity.
The Baf3/EpoR/GCSFR fos/lux cells are cultured in DMEM/F12 medium (Gibco) supplemented with 10% fetal bovine serum (FBS; Hyclone), 10% WEHI-3 supernatant (the supernatant from a culture of WEHI-3 cells, ATCC # TIB-68), and penicillin/streptomycin. […] Following a 5-minute incubation, light emission is measured on a Packard Topcount Luminometer (Packard Instrument Co., Downers Grove, Ill.). […]

[2] = tested on: human, bone marrow derived CD34+ cells; format: cell-based
Source text: EPO-R signaling stimulates the differentiation of bone marrow stem cells into proliferating red blood cell precursors. This assay measures the ability of test peptides to stimulate the proliferation and differentiation of red blood cell precursors from primary human bone marrow pluripotent stem cells.
For this assay, serial dilutions of test peptide are made in IMDM medium (Gibco) supplemented with 10% FBS (Hyclone). […] The methylcellulose and peptide mixture is then vortexed thoroughly. Aliquots (100,000 cells/mL) of human, bone marrow derived CD34+ cells (Poietics/Cambrex) are thawed. The thawed cells are gently added to 0.1 mL of 1 mg/ml DNAse (Stem Cells) in a 50 mL tube. Next, 40-50 mL IMDM medium is added gently to cells: the medium is added drop by drop along the side of the 50 mL tube for the first 10 mL, and then the remaining volume of medium is slowly dispensed along the side of the tube. The cells are then spun at 900 rpm for 20 min, and the media removed carefully by gentle aspiration. The cells are resuspended in 1 ml of IMDM medium and the cell density per mL is counted on hemacytometer slide (10 μL aliquot of cell suspension on slide, and cell density is the average count×10,000 cells/mil). The cells are then diluted in IMDM medium to a cell density of 15,000 cells/mL. A 100 μL of diluted cells is then added to each 1.5 mL methyl cellulose plus peptide sample (final cell concentration in assay media is 1000 cells/mL), and the mixture is vortexed. Allow the bubbles in the mixture to disappear, and then aspirate 1 mL using blunt-end needle. Add 0.25 mL aspirated mixture from each sample into each of 4 wells of a 24-well plate (Falcon brand). Incubate the plated mixtures at 37° C. under 5% CO2 in a humid incubator for 14 days. Score for the presence of erythroid colonies using a phase microscope (5×-10× objective, final magnification of 100×).

human EPO-R = biological target: T1, human EPO-R (Homo sapiens, UniProt P19235); assay: Proliferation assay (BaF3/Gal4/Elk/EPOR cells, MTT); format: cell-based; settings: 48 h
T1 construct: expressed in transfected cells; host or cells: murine pre-B-cell line Baf3 (BaF3/Gal4/Elk/EPOR)
T1 sequence (P19235 25-508): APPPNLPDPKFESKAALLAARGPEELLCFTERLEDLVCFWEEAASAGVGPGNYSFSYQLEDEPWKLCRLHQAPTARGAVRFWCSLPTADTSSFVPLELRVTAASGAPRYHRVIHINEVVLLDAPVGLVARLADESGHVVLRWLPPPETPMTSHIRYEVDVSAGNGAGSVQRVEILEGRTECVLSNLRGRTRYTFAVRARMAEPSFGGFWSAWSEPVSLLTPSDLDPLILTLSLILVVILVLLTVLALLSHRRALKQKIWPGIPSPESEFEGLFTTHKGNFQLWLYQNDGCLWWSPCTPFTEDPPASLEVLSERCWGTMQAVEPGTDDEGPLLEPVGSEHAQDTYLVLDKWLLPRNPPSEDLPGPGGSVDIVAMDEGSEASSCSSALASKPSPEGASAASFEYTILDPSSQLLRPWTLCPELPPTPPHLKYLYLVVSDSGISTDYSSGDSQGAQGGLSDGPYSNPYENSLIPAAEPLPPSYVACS
Protocol: This assay is based upon a murine pre-B-cell line, Baf3, transfected to express human EPO-R. Proliferation of the resulting cell line, BaF3/Gal4/Elk/EPOR, is dependent on EPO-R activation. The degree of cell proliferation is quantitated using MTT, where the signal in the MTT assay is proportional to the number of viable cells.
The BaF3/Ga14/Elk/EPOR cells are cultured in spinner flasks in DMEM/F12 medium (Gibco) supplemented with 10% FBS (Hyclone) and 2% WEHI-3 supernatant (ATCC # TIB-68). Cultured cells are starved overnight, in a spinner flask at a cell density of 1×10^6 cells/ml, in DMEM/F12 medium supplemented with 10% FBS and 0.1% WEHI-3 supernatant. The starved cells are then washed twice with Dulbecco's PBS (Gibco), and resuspended to a density of 1×10^6 cells/ml in DMEM/F12 supplemented with 10% FBS (no WEHI-3 supernatant). 50 μL , aliquots (˜50,000 cells) of the cell suspension are then plated, in triplicate, in 96 well assay plates. […] The plated cells are then incubated for 48 h at 37° C. Next, 10 μL of MTT (Roche Diagnostics) is added to each culture dish well, and then allowed to incubate for 4 h. The reaction is then stopped by adding 10% SDS+0.01N HCl. The plates are then incubated overnight at 37° C. Absorbance of each well at a wavelength of 595 nm is then measured by spectrophotometry. Plots of the absorbance readings versus test peptide concentration are constructed and the EC50 calculated using Graph Pad software. The concentration of test peptide that results in a half-maximal absorbance is recorded as the EC50 [See Table 3: Proliferation EC50].

recombinant EPO-R = biological target: T2, recombinant EPO-R (Homo sapiens, UniProt P19235); assay: Competitive binding assay (AQ, bead proximity, tracer AF33068); settings: tracer AF33068 30 nM, 18 hours
T2 construct: made in house; host or cells: Chinese Hamster Ovary cells
T2 sequence (P19235 25-250 limits assumed): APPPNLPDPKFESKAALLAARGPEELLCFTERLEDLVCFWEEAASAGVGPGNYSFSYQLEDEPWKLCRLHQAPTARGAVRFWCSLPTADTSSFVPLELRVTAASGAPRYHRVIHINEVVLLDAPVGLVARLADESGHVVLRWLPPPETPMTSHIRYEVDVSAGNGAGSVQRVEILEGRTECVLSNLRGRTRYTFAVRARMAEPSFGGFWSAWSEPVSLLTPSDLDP
Source text: Competitive binding calculations are made using an assay in which a light signal is generated as a function of the proximity of two beads: a streptavidin donor bead bearing a biotinylated EPO-R-binding peptide tracer and an acceptor bead to which is bound EPO-R. Light is generated by non-radiative energy transfer, during which a singlet oxygen is released from a first bead upon illumination, and contact with the released singlet oxygen causes the second bead to emit light. These bead sets are commercially available (Packard). Bead proximity is generated by the binding of the EPO-R-binding peptide tracer to the EPO-R. A test peptide that competes with the EPO-R-binding peptide tracer for binding to EPO-R will prevent this binding, causing a decrease in light emission.
In more detail the method is as follows: Add 4 μL of serial dilutions of the test EPO-R agonist peptide, or positive or negative controls, to wells of a 384 well plate. Thereafter, add 2 μL/well of receptor/bead cocktail. […]
Centrifuge 1 min to mix. […] After 18 hours read light emission using an AlphaQuest reader (Packard). […]

Substance	EC50 [1]	EC90 [2]	EC50 (human EPO-R)	IC50 (recombinant EPO-R)
GGLYACHMGPMT(1-nal)VCQPLRG (GGLYACHMGPMT[1Nal]VCQPLRG; cysteine pairing not given here) [AF31748]	40 nM	–	–	–
GGLYACHMGPMTVCQPLRG [AF31552]	100 nM	–	–	–
I: Ac-GGLYACHMGPITWVCQPLRGK[Ahx][Ahx] / II: Ac-GGLYACHMGPITWVCQPLRG (disulfide I:6-I:15, II:6-II:15; amide I:21-II:C; N-terminus assumed) [AF34753]	–	1.2 nM	–	–
I: Ac-GGLYACHMGPIT[1Nal]VCQPLR[Sar][ξK]-{NH(CH2CH2O)2CH2CH2NH2} / II: Ac-GGLYACHMGPIT[1Nal]VCQPLR[Sar] (disulfide I:6-I:15, II:6-II:15; amide I:21-II:C) [AF35525]	–	3 nM	0.057 nM	–
I: Ac-GGLYACH[hSer](Me)GPIT[1Nal]VCQPLRGK[Ahx][Ahx] / II: Ac-GGLYACH[hSer](Me)GPIT[1Nal]VCQPLRG (disulfide I:6-I:15, II:6-II:15; amide I:21-II:C; N-terminus assumed) [AF35179]	–	3.7 nM	–	–
I: Ac-GGLYACH[hSer](Me)GPIT[1Nal]VCQPLR[Sar][ξK]-{NH(CH2CH2O)2CH2CH2NH2} / II: Ac-GGLYACH[hSer](Me)GPIT[1Nal]VCQPLR[Sar] (disulfide I:6-I:15, II:6-II:15; amide I:21-II:C) [AF35149]	–	2 nM	0.057 nM	–
I: GGLYACHMGPITWVCQPLRGK-NH2 / II: GGLYACHMGPITWVCQPLRG (disulfide I:6-I:15, II:6-II:15; amide I:21-II:C) [AF32579]	–	3 nM	0.142 nM	1.7 nM
I: GGLYACHMGPIT[1Nal]VCQPLR[Sar]K-NH2 / II: GGLYACHMGPIT[1Nal]VCQPLR[Sar] (disulfide I:6-I:15, II:6-II:15; amide I:21-II:C) [AF34994]	–	3.7 nM	0.17 nM	–
I: GGLYACH[hSer](Me)GPITWVCQPLR[Sar]K-NH2 / II: GGLYACH[hSer](Me)GPITWVCQPLR[Sar] (disulfide I:6-I:15, II:6-II:15; amide I:21-II:C) [AF35090]	–	3.7 nM	0.19 nM	–
I: GGLYACH[hSer](Me)GPIT[1Nal]VCQPLRGK-NH2 / II: GGLYACH[hSer](Me)GPIT[1Nal]VCQPLRG (disulfide I:6-I:15, II:6-II:15; amide I:21-II:C) [AF32881]	–	11 nM	–	–

— US8304391B2 (Affymax, Inc., priority 2003, dated 2012)
